From article PMC9837035 (Nature Communications, 2023)
“And” between values parts separate entries of the source, which are not always exact repeats. Equal values may be shown once.

Experiments:
[1] = system: rat myoblast cell line H9c2; test: Cell viability assay (WST-8), H9c2; assay type: cell-based; details: control (0 μM) = 100
Procedure: (§1) A WST-8 (2-(2-methoxy-4-nitrophenyl)-3-(4-nitrophenyl)-5-(2,4-disulfophenyl)-2H-tetrazolium) assay using a Cell Counting Kit-8 (DOJINDO) was performed to measure cell viability using an EnSpire microplate reader (PerkinElmer).

HUDEP-2 cells = test: Cell viability assay (WST-8), HUDEP-2; assay type: cell-based, human; details: control (0 μM) = 100
Procedure: as §1

mice = test: Mouse acute toxicity assay, survival; assay type: in vivo; details: intravenous, 2-week observation
Procedure: All animal studies were approved by the Institutional Committee for Animal Experiments of the Institute of Microbial Chemistry, and were performed in accordance with relevant guidelines and regulations to minimize animal suffering. Four-week-old female ICR mice were purchased from Charles River Breeding Laboratories (Yokohama, Japan) and maintained in a specific pathogen-free barrier facility. […] Samples were dissolved in saline containing 10% DMSO and 1% Tween 80 and injected intravenously into mice.

[2] = system: Salmonella typhimurium TA98; test: Ames test, TA98
Procedure: (§2) The Salmonella mutagenicity assay was performed by pre-incubating the test compounds for 20 min with Salmonella typhimurium strains TA98 and TA100, with and without metabolic activation (S9 mixture).
(§3) After this time 2 mL of top agar was added to the mixture and poured on to a plate containing minimum agar. The plates were incubated at 37 °C for 49 h and the His ± revertant colonies were counted manually and automatically by a colony counter (Colony analyzer CA-11D systems, System science Co.,Ltd.). The influence of metabolic activation was tested by adding 500 μL of 10% S9 mixture. All experiments were performed in duplicate. […] DMSO served as the negative control (100 μL/plate). The mutagenic index (MI, the average number of revertants per plate divided by the average number of revertants per plate from the negative control) was also calculated for each dose. A sample was considered positive when the MI was equal to or greater than 2 for at least one of the tested doses.

[3] = system: Salmonella typhimurium TA100; test: Ames test, TA100
Procedure: as §2, §3

[4] = system: BGLT3 RNA in HUDEP-2 cells; test: RT-qPCR of BGLT3 in HUDEP-2 cells; assay type: cell-based, human; details: relative to DMSO = 1, replicate values; for BGLT3 expression in HUDEP-2 cells: Sup.Fig.11a
Procedure: (§4) Total cellular RNA was prepared using the Tissue Total RNA Mini Kit (FAVORGEN), and cDNA was synthesized using ReverTra Ace Master Mix (TOYOBO). Expression of target genes was analyzed using THUNDERBIRD SYBR qPCR Mix (TOYOBO) on a CFX Connect Real Time System (Bio-Rad). The qPCR data were acquired on CFX Maestro (Bio-Rad). Primers are listed in Supplementary Table 10. GAPDH was used as a reference. Primers were purchased from INTEGRATED DNA TECHNOLOGIES or FASMAC.

[5] = system: BGLT3-knockdown HUDEP-2 cells; test: RT-qPCR of BGLT3, β- and γ-globin in BGLT3-knockdown HUDEP-2 cells; assay type: cell-based, human; details: 1 μM, relative to shctrl DMSO = 1, replicate values
Procedure: as §4
Retroviral infection was used as previously described to establish cell lines stably expressing BGLT3 and transfected with the pCX4-pur vector, as well as knockdown cell lines transfected with the pSUPER vector[58]. Briefly, retroviruses were produced by transfecting PLAT-E cells with pCX4-pur-BGLT3 or pSUPER-ctrl, pSUPER-BGLT3, or pSUPER-G9a using 5 μg/mL polyethylenimine MAX (PEI MAX, Polysciences). Two days after transfection, the culture supernatant was collected and filtered through a 0.45-μm filter (Millipore) and used for infection with 8 μg/mL polybrene (Sigma). Forty-eight hours after infection, the infected cells were selected with 0.2 μg/mL puromycin (InvivoGen). The clonal puromycin-resistant cells were established via limiting dilution. The desired clones were confirmed by western blotting or qPCR.

G9a = molecular target: T1, G9a (Homo sapiens, UniProt Q96KQ7); test: In vitro G9a methyltransferase assay (AlphaLISA-based); assay type: biochemical; design: purchased BPS Bioscience
T1 sequence (Q96KQ7 1-1210): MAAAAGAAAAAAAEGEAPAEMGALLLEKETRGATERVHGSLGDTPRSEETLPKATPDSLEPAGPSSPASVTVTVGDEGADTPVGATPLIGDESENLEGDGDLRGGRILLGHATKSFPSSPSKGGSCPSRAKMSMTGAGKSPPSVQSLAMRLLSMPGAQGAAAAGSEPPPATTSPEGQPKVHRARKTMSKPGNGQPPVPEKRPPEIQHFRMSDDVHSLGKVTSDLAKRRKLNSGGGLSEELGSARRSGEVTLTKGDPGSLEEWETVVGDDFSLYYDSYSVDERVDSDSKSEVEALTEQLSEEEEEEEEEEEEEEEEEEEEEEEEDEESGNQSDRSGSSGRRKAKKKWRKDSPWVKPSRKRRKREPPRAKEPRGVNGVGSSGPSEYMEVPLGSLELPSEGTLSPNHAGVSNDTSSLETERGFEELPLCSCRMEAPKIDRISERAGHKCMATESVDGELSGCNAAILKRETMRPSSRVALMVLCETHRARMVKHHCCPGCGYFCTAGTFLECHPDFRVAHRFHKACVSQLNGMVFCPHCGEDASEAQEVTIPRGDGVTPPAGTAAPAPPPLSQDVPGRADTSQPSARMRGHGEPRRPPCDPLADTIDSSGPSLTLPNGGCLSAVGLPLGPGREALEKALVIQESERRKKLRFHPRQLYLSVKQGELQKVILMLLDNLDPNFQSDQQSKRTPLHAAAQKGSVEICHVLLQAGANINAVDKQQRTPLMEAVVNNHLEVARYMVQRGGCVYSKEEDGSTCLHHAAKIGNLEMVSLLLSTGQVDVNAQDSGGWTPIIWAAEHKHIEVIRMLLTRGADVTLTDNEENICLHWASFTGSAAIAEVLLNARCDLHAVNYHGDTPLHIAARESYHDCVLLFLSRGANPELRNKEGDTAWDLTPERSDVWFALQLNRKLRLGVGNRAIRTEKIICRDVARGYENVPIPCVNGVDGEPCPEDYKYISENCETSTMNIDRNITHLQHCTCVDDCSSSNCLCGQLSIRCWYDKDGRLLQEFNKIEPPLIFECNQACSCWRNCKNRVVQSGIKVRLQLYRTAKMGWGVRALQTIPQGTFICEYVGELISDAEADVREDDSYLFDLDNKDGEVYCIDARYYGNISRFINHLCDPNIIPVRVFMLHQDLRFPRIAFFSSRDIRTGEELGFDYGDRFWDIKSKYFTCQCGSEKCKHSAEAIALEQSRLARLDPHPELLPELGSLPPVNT
Procedure: An amplified luminescence proximity homogeneous assay (ALPHA) was performed with a modified version of a previously described method. Recombinant G9a proteins (BPS Bioscience) were incubated with 15 μM S-adenosyl-methionine (Sigma) and 50 nM biotinylated histone H3 (1-21; AnaSpec) in the assay buffer (50 mM Tris-HCl (pH 9.0), 50 mM NaCl, 0.01% Tween-20, and 1 mM DTT). After incubation at room temperature for 1 h, AlphaLISA anti-H3K9me2 acceptor beads (final concentration 10 μg/mL, PerkinElmer, AL117C) and AlphaScreen streptavidin donor beads (final concentration 10 μg/mL, PerkinElmer, 6760002B) were added and incubated for an additional 1 h prior to detection of the alpha signal with an EnSpire Alpha plate reader (PerkinElmer). ALPHA profile was analyzed using Origin (OriginLab).

[6] = system: β- and γ-globin genes in HUDEP-2 cells; test: RT-qPCR of β- and γ-globin in HUDEP-2 cells; assay type: cell-based, human; details: single agents or combination; relative to DMSO = 1; replicate values
Procedure: as §4

[7] = G9a activity, AlphaLISA-based assay, mean of three experiments
[8] = Sup.Table1, three replicate values

SMILES: COc1cc2c(cc1OCCCN1CCCC1)N=C(N)C21CCC1 [A-366]
- cell viability in H9c2 cells ([1]; 0.039 μM): 104.360 and 99.467 and 89.907
- cell viability in H9c2 cells ([1]; 0.156 μM): 95.640 and 83.067 and 81.211
- cell viability in H9c2 cells ([1]; 0.625 μM): 92.264 and 78.533 and 78.882
- cell viability in H9c2 cells ([1]; 2.5 μM): 78.059 and 64.000 and 71.429
- cell viability in H9c2 cells ([1]; 10.0 μM): 53.868 and 49.733 and 52.329
- cell viability in HUDEP-2 cells (HUDEP-2 cells; 0.00457247 μM): 82.0673 and 97.2549 and 93.6968
- cell viability in HUDEP-2 cells (HUDEP-2 cells; 0.0137174 μM): 88.332 and 96 and 98.8075
- cell viability in HUDEP-2 cells (HUDEP-2 cells; 0.0411523 μM): 83.007 and 93.4902 and 87.9046
- cell viability in HUDEP-2 cells (HUDEP-2 cells; 0.123457 μM): 84.5732 and 96 and 89.6082
- cell viability in HUDEP-2 cells (HUDEP-2 cells; 0.37037 μM): 79.2482 and 92.549 and 93.6968
- cell viability in HUDEP-2 cells (HUDEP-2 cells; 1.11111 μM): 81.1276 and 90.6667 and 88.586
- cell viability in HUDEP-2 cells (HUDEP-2 cells; 3.33333 μM): 67.9718 and 80.3137 and 66.7802
- cell viability in HUDEP-2 cells (HUDEP-2 cells; 10 μM): 52.3101 and 64.9412 and 58.9438
- Number of alive mice (mice; 0.1953125 mg/kg): 3/3
- Number of alive mice (mice; 0.390625 mg/kg): 3/3
- Number of alive mice (mice; 0.78125 mg/kg): 3/3
- Number of alive mice (mice; 1.5625 mg/kg): 0/3
- Number of alive mice (mice; 3.125 mg/kg): 0/3

SMILES: NC(=O)C(=Cc1ccc([N+](=O)[O-])o1)c1ccco1 [AF-2, 2-(2-furyl)-3-(5-nitro-2-furyl)acrylamide, reference compound]
- Number of reverants/plate ([2]; TA98, - S9, frameshift mutation, 0.1 μg/plate): 497 and 507
- Number of revertants/plate ([2]; TA98, -S9, 0.1 μg/plate, positive control): 502
- Number of reverants/plate ([3]; TA100, - S9, base pair substitution mutation, 0.01 μg/plate): 725 and 728
- Number of revertants/plate ([3]; TA100, -S9, 0.01 μg/plate, positive control): 727

SMILES: Nc1ccccc1NC(=O)c1ccc(CNC(=O)OCc2cccnc2)cc1 [MS-275]
- BGLT3 expression in HUDEP-2 cells [4]: 14.3147 and 21.8274 and 19.7082
- β-globin gene in BGLT3-knockdown HUDEP-2 cells ([5]; shBGLT3 #1): 3.1513 and 3.12 and 3.5502
- γ-globin gene in BGLT3-knockdown HUDEP-2 cells ([5]; shBGLT3 #1): 20.155 and 19.0925 and 20.8632
- β-globin gene in BGLT3-knockdown HUDEP-2 cells ([5]; shBGLT3 #2): 2.766 and 2.148 and 2.288
- γ-globin gene in BGLT3-knockdown HUDEP-2 cells ([5]; shBGLT3 #2): 8.523 and 7.607 and 25.7598
- β-globin gene in BGLT3-knockdown HUDEP-2 cells ([5]; shBGLT3 #3): 1.145 and 1.259 and 1.535
- γ-globin gene in BGLT3-knockdown HUDEP-2 cells ([5]; shBGLT3 #3): 19.0595 and 19.9736 and 20.0664
- β-globin gene in BGLT3-knockdown HUDEP-2 cells ([5]; shctrl): 4.7699 and 6.2041 and 4.688
- γ-globin gene in BGLT3-knockdown HUDEP-2 cells ([5]; shctrl): 47.2575 and 62.7038 and 44.6998

SMILES: COC(=O)c1ccc2nc([C@H](CCSC)NC(=O)c3[nH]c4c(c3C)C(=O)CC(C)(C)C4)[nH]c2c1 [compound 8]
- IC50 (G9a; [7]): 21.3 µM
- IC50 (G9a; [8]): 24.6 µM and 20.7 µM and 18.7 µM

SMILES: CSCC[C@H](NC(=O)c1[nH]c2c(c1C)C(=O)CC(C)(C)C2)C(=O)Nc1ccccc1 [compound 9]
- IC50 (G9a; [7]): 0.3 µM
- IC50 (G9a; [8]): 0.299 µM and 0.291 µM and 0.316 µM

SMILES: Nc1ncn([C@H]2C[C@H](O)[C@@H](CO)O2)c(=O)n1 [decitabine]
- BGLT3 expression in HUDEP-2 cells [4]: 2.269 and 2.6404 and 2.1358
- BGLT3 expression in HUDEP-2 cells treated with RK-701 and decitabine ([4]; single agents or combination): 3.3143 and 2.772 and 4.351
- β-globin expression in HUDEP-2 cells treated with RK-701 and decitabine [6]: 0.9105 and 1.679 and 1.802
- γ-globin expression in HUDEP-2 cells treated with RK-701 and decitabine [6]: 5.299 and 8.189 and 8.892
- β-globin gene in BGLT3-knockdown HUDEP-2 cells ([5]; shBGLT3 #1): 0.735 and 0.7829 and 0.8722
- γ-globin gene in BGLT3-knockdown HUDEP-2 cells ([5]; shBGLT3 #1): 2.413 and 2.581 and 2.465
- β-globin gene in BGLT3-knockdown HUDEP-2 cells ([5]; shBGLT3 #2): 0.6218 and 0.5853 and 0.4869
- γ-globin gene in BGLT3-knockdown HUDEP-2 cells ([5]; shBGLT3 #2): 2.574 and 2.659 and 3.171
- β-globin gene in BGLT3-knockdown HUDEP-2 cells ([5]; shBGLT3 #3): 0.8092 and 0.8421 and 1.086
- γ-globin gene in BGLT3-knockdown HUDEP-2 cells ([5]; shBGLT3 #3): 1.425 and 1.467 and 1.465
- β-globin gene in BGLT3-knockdown HUDEP-2 cells ([5]; shctrl): 0.8786 and 0.8917 and 0.7285
- γ-globin gene in BGLT3-knockdown HUDEP-2 cells ([5]; shctrl): 8.583 and 10.749 and 7.48
